Assay [1] has as its target T1, D(4) dopamine receptor (Homo sapiens) (UniProt P21917).
T1 sequence (whole entry): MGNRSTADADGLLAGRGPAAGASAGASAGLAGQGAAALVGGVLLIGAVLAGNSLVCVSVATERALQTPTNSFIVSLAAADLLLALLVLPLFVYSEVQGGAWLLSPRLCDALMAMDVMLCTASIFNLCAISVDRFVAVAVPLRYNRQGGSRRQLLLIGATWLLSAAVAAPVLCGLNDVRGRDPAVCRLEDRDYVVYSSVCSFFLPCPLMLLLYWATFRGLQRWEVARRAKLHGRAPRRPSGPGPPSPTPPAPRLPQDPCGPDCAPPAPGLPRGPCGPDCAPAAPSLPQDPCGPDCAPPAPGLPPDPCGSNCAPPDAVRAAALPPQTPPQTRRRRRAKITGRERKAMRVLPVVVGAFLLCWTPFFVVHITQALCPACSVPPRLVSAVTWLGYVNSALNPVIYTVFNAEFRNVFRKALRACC
Briefly: Displacement of [3H]spiperone from human cloned dopamine D4.4 receptor expressed in CHO cells at 100 nM. Format: cell-based. On the technique in general: Loss of bound radioactivity is the signal in a displacement assay; it reports binding, not function.

Assay [2] addresses T2, D(2) dopamine receptor (Homo sapiens, UniProt P14416). Briefly: Displacement of [3H]spiperone from human cloned dopamine D2 long receptor expressed in CHO cells at 100 nM. Format: cell-based.
Assay [3] concerns the target D(1A) dopamine receptor (Sus scrofa) (UniProt P50130). Briefly: Displacement of [3H]SCH23390 from pig dopamine D1 receptor at 100 nM.
In the next assay the target is T3, D(4) dopamine receptor (Homo sapiens, UniProt P21917).
T3 sequence (P21917 whole entry): T1 sequence (whole entry)
Briefly: Displacement of [3H]spiroperidol from human cloned dopamine D4.4 receptor expressed in CHO cells. In kind it is cell-based.

The target in assay [4] is T2, D(2) dopamine receptor. Briefly: biochemical.
Description: Displacement of [3H]spiroperidol from human cloned dopamine D2 short receptor expressed in CHO cells
Assay [5] addresses T2, D(2) dopamine receptor. The experiment in a line: biochemical. This is another data set of the same source.
Description: Displacement of [3H]SCH23390 from human cloned dopamine D2 long receptor expressed in CHO cells
Another assay deals with D(3) dopamine receptor (Homo sapiens, UniProt P35462). Briefly: biochemical.
Sequence of D(3) dopamine receptor (P35462 whole entry): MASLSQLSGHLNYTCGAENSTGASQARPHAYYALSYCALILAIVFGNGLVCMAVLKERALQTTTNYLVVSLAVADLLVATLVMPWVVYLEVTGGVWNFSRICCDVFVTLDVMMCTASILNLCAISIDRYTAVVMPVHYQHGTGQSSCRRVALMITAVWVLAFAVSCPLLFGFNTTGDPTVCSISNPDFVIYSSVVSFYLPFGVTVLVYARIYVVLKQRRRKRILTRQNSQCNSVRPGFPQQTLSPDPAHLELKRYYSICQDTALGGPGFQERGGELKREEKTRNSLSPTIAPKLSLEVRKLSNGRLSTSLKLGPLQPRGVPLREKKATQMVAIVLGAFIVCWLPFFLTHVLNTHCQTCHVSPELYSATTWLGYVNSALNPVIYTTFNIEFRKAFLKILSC
The target in another assay is D(1A) dopamine receptor (Bos taurus, UniProt Q95136).
Sequence of D(1A) dopamine receptor (Q95136 whole entry): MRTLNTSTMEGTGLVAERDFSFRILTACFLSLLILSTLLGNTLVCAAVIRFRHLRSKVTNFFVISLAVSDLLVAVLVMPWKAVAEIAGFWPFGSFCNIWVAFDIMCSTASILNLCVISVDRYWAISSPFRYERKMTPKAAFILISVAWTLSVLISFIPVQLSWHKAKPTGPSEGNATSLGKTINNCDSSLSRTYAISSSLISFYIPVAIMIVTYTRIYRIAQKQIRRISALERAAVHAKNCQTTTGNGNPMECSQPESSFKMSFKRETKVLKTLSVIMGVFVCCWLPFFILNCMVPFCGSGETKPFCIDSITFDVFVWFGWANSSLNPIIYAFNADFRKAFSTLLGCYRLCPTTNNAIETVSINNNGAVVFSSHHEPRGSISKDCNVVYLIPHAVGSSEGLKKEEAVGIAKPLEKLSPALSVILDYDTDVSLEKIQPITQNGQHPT

What is called Ki is the equilibrium dissociation constant of an inhibitor or competing ligand from its target. Low readings indicate tighter binding, high ones weaker binding.

Sequence of D(1A) dopamine receptor (Sus scrofa) (P50130 whole entry): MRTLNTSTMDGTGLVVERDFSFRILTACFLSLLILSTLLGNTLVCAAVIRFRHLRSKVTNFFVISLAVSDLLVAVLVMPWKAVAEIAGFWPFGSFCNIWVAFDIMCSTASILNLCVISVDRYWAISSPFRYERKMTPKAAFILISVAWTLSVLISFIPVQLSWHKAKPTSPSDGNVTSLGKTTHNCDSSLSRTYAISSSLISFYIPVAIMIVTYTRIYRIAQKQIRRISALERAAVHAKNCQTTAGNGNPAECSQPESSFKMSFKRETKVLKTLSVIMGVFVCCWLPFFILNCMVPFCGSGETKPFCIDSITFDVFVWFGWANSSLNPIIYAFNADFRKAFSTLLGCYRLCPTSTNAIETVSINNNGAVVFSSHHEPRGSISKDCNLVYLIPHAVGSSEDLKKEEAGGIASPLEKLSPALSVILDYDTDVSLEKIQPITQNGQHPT
T2 sequence (P14416 whole entry): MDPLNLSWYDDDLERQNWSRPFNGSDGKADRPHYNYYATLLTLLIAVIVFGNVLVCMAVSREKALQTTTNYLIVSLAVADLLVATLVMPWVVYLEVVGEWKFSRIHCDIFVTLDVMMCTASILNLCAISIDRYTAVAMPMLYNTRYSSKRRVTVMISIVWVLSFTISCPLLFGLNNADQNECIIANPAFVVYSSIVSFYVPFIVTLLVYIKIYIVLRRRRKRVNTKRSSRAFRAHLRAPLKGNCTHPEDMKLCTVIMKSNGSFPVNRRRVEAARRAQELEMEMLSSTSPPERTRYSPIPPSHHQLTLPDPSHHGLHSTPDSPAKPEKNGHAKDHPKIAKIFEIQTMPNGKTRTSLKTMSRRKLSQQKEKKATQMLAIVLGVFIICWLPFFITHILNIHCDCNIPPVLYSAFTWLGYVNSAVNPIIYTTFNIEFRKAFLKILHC
Description for D(3) dopamine receptor: Displacement of [3H]spiroperidol from human cloned dopamine D3 receptor expressed in CHO cells

For `CCOC(=O)c1nc2cc(C)nc(C)n2c1CN1CCN(c2ccc(OC)cc2)CC1`, the Activity (in assay [1]; at D(2) dopamine receptor [2]; in assay [3]) was 0% throughout.

`Clc1nccc2c(CN3CCN(c4ccccc4)CC3)c[nH]c12`: the Ki is 6.4 nM on D(4) dopamine receptor; 2900 nM on D(2) dopamine receptor [4]; 2600 nM at D(2) dopamine receptor [5]; 6100 nM at D(3) dopamine receptor; 6800 nM at D(1A) dopamine receptor.

For the compound `COc1ccc(N2CCN(Cc3c(C)[nH]c4nc(N(C)C)ncc34)CC2)cc1`, the Activity (in assay [1]; on D(2) dopamine receptor [2]; in assay [3]) was 0% throughout.

`Cc1cc2ncc(CN3CCN(c4ccc(Cl)c(Cl)c4)CC3)n2cn1`: the Activity (in assay [1]; on D(2) dopamine receptor [2]; in assay [3]) was 0% each time.

Turning to `Cc1cc2nc(C)c(CN3CCN(c4ccc(Cl)cc4)CC3)n2cn1`, the Activity (in assay [1]; on D(2) dopamine receptor [2]; in assay [3]) was 0% each time.

`Cc1cc2ncc(CN3CCN(c4ccc(Cl)cc4)CC3)n2cn1`: the Activity (in assay [1]; at D(2) dopamine receptor [2]; in assay [3]) was 0% throughout.

For `Cc1cc2nc(C)c(CN3CCN(c4ccc(Cl)c(Cl)c4)CC3)n2cn1`, the Activity in assay [1] was determined as 20%; on D(2) dopamine receptor [2], 0%; in assay [3] it was 0%.

As to `COc1ccccc1N1CCN(Cc2c(C)nc3cc(C)ncn23)CC1`, the Ki turned out to be 39 nM on D(4) dopamine receptor; 53000 nM at D(2) dopamine receptor [4]; 40000 nM at D(2) dopamine receptor [5]; 67000 nM on D(3) dopamine receptor; 59000 nM at D(1A) dopamine receptor. Also, the values for the Activity (in assay [1]; at D(2) dopamine receptor [2]; in assay [3]) were 20%, 0% and 0%, respectively.

Take `COc1ccc(N2CCN(Cc3c(C)nc4cc(C)nc(C)n34)CC2)cc1`: the Ki was 960 nM at D(4) dopamine receptor; 160 nM on D(2) dopamine receptor [4]; 260 nM on D(2) dopamine receptor [5]; 8.5 nM on D(3) dopamine receptor; 6600 nM on D(1A) dopamine receptor. The Activity (in assay [1]; at D(2) dopamine receptor [2]; in assay [3]) was 0% throughout.

In the case of `Cc1cc2ncc(CN3CCN(c4ccccn4)CC3)n2c(C)n1`, the Activity (in assay [1]; at D(2) dopamine receptor [2]; in assay [3]) was 0% each time.

For the compound `COc1cc2ncc(CN3CCN(c4ccccc4OC)CC3)n2c(OC)n1`, the Activity in assay [1] was 20%; at D(2) dopamine receptor [2], 0%; in assay [3], 0%.

Take `COc1ccccc1N1CCN(Cc2cc3c(=O)[nH]c(N(C)C)nc3[nH]2)CC1`: the Ki was found to be 2.4 nM on D(4) dopamine receptor; 170 nM at D(2) dopamine receptor [4]; 130 nM at D(2) dopamine receptor [5]; 960 nM on D(3) dopamine receptor; 8400 nM on D(1A) dopamine receptor. The values for the Activity (in assay [1]; at D(2) dopamine receptor [2]; in assay [3]) were 60%, 20% and 20%, respectively.

For the compound `Cn1c(N2CCCC2)nc2c(CN3CCN(c4ccc(Cl)c(Cl)c4)CC3)c[nH]c2c1=O`, the Ki at D(4) dopamine receptor was 3.4 nM; at D(2) dopamine receptor [4], 380 nM; on D(2) dopamine receptor [5] it was 570 nM; on D(3) dopamine receptor, 480 nM; at D(1A) dopamine receptor it was 1500 nM.

In the case of `Cn1c(N2CCOCC2)nc2c(CN3CCN(c4ccccc4)CC3)c[nH]c2c1=O`, the Ki turned out to be 25 nM on D(4) dopamine receptor; 730 nM at D(2) dopamine receptor [4]; 1100 nM on D(2) dopamine receptor [5]; 2700 nM at D(3) dopamine receptor; 520 nM on D(1A) dopamine receptor.

For the compound `Cn1c(N2CCCC2)nc2c(CN3CCN(c4ccccn4)CC3)c[nH]c2c1=O`, the Ki turned out to be 2.8 nM at D(4) dopamine receptor; 150 nM at D(2) dopamine receptor [4]; 270 nM at D(2) dopamine receptor [5]; 310 nM on D(3) dopamine receptor; 790 nM at D(1A) dopamine receptor.

Turning to `Cc1cc2ncc(CN3CCN(c4ccccc4)CC3)n2cn1`, the Activity turned out to be 20% in assay [1], 0% at D(2) dopamine receptor [2] and 0% in assay [3].

For `Cc1cc2nc(C)c(CN3CCN(c4ccccn4)CC3)n2cn1`, the results for the Activity (in assay [1]; at D(2) dopamine receptor [2]; in assay [3]) were 40%, 0% and 0%, respectively.

For the compound `Cc1cc2nc(C)c(CN3CCN(c4ccccc4)CC3)n2cn1`, the Activity (in assay [1]; at D(2) dopamine receptor [2]; in assay [3]) was 0% throughout.

Consider `Cc1cc2nc(C)c(CN3CCN(c4ccc(Cl)c(Cl)c4)CC3)n2c(C)n1`, for which the Ki at D(4) dopamine receptor is 21 nM; at D(2) dopamine receptor [4] it was 5500 nM; on D(2) dopamine receptor [5] it was 3300 nM; at D(3) dopamine receptor it was 1300 nM; at D(1A) dopamine receptor it was 2100 nM.

For `Cc1cc2ncc(CN3CCN(c4ccccc4)CC3)n2c(C)n1`, the Activity (in assay [1]; at D(2) dopamine receptor [2]; in assay [3]) was 0% each time.

As to `CCOC(=O)c1nc2cc(C)nc(C)n2c1CN1CCN(c2ccccc2OC)CC1`, the Activity (in assay [1]; at D(2) dopamine receptor [2]; in assay [3]) was 0% each time.

Regarding `Cc1cc2nc(C)c(CN3CCN(c4ccccc4)CC3)n2c(C)n1`, the Ki on D(4) dopamine receptor was 70 nM; at D(2) dopamine receptor [4], 11000 nM; on D(2) dopamine receptor [5], 8600 nM; at D(3) dopamine receptor, 4200 nM; on D(1A) dopamine receptor it was 11000 nM.

Consider `Cn1c(N2CCCC2)nc2c(CN3CCN(c4ccccc4)CC3)c[nH]c2c1=O`, for which the Ki turned out to be 3.8 nM on D(4) dopamine receptor; 180 nM on D(2) dopamine receptor [4]; 390 nM on D(2) dopamine receptor [5]; 330 nM at D(3) dopamine receptor; 250 nM on D(1A) dopamine receptor.

Turning to `COc1ccccc1N1CCN(Cc2c(C)[nH]c3nc(N(C)C)ncc23)CC1`, the Ki at D(4) dopamine receptor amounted to 6.4 nM; at D(2) dopamine receptor [4], 2900 nM; at D(2) dopamine receptor [5] it was 2600 nM; on D(3) dopamine receptor it was 6100 nM; on D(1A) dopamine receptor, 6800 nM. Further, the values for the Activity (in assay [1]; on D(2) dopamine receptor [2]; in assay [3]) were 80%, 20% and 0%, respectively.

As to `COc1ccccc1N1CCN(Cc2cnc3cc(C)nc(C)n23)CC1`, the Ki amounted to 66 nM at D(4) dopamine receptor; 570 nM on D(2) dopamine receptor [4]; 1300 nM at D(2) dopamine receptor [5]; 1500 nM on D(3) dopamine receptor; 11000 nM at D(1A) dopamine receptor.

For the compound `Cc1cc2nc(C)c(CN3CCN(c4ccc(Cl)cc4)CC3)n2c(C)n1`, the Ki at D(4) dopamine receptor turned out to be 66 nM; on D(2) dopamine receptor [4], 57000 nM; at D(2) dopamine receptor [5], 26000 nM; at D(3) dopamine receptor, 3100 nM; on D(1A) dopamine receptor it was 7100 nM.

As for `Cc1cc2nc(C)c(CN3CCN(c4ccccn4)CC3)n2c(C)n1`, the Ki on D(4) dopamine receptor turned out to be 120 nM; on D(2) dopamine receptor [4], 10000 nM; on D(2) dopamine receptor [5] it was 17000 nM; on D(3) dopamine receptor it was 640 nM; at D(1A) dopamine receptor it was 22000 nM.

Take `Cc1cc2nc(C)c(CN3CCN(c4ccc(F)cc4)CC3)n2c(C)n1`: the Ki at D(4) dopamine receptor is 360 nM; at D(2) dopamine receptor [4], 3500 nM; at D(2) dopamine receptor [5], 4700 nM; at D(3) dopamine receptor it was 22000 nM; at D(1A) dopamine receptor, 12000 nM.

Regarding `COc1ccc(N2CCN(Cc3cnc4cc(OC)nc(OC)n34)CC2)cc1`, the Activity is 0% in assay [1], 20% at D(2) dopamine receptor [2] and 0% in assay [3].

Regarding `Cc1cc2ncc(CN3CCN(c4ccccn4)CC3)n2cn1`, the Activity (in assay [1]; at D(2) dopamine receptor [2]; in assay [3]) was 0% each time.

For `COc1ccc(N2CCN(Cc3cnc4ccncn34)CC2)cc1`, the Activity (in assay [1]; on D(2) dopamine receptor [2]; in assay [3]) was 0% throughout.

Turning to `COc1ccccc1N1CCN(Cc2c(C)nc3cc(C)nc(C)n23)CC1`, the inhibition constant Ki came to 14 nM at D(4) dopamine receptor; 2900 nM on D(2) dopamine receptor [4]; 2300 nM on D(2) dopamine receptor [5]; 3400 nM on D(3) dopamine receptor; 8400 nM at D(1A) dopamine receptor. For the same compound, the Activity stood at 60% in assay [1], 0% on D(2) dopamine receptor [2] and 0% in assay [3].

Turning to `COc1ccccc1N1CCN(Cc2cnc3cc(C)ncn23)CC1`, the Activity (in assay [1]; on D(2) dopamine receptor [2]; in assay [3]) was 0% in each case.

For `Cc1cc2ncc(CN3CCN(c4ccc(Cl)cc4)CC3)n2c(C)n1`, the Activity (in assay [1]; on D(2) dopamine receptor [2]; in assay [3]) was 0% in each case.

For `COc1ccc(N2CCN(Cc3cnc4cc(C)nc(C)n34)CC2)cc1`, the Activity (in assay [1]; on D(2) dopamine receptor [2]; in assay [3]) was 0% throughout.

`Cc1cc2ncc(CN3CCN(c4ccc(Cl)c(Cl)c4)CC3)n2c(C)n1`: the Activity (in assay [1]; at D(2) dopamine receptor [2]; in assay [3]) was 0% throughout.

`Cn1c(N2CCCC2)nc2c(CN3CCN(c4ccc(F)cc4)CC3)c[nH]c2c1=O`: the inhibition constant (Ki) was found to be 16 nM at D(4) dopamine receptor; 400 nM at D(2) dopamine receptor [4]; 840 nM on D(2) dopamine receptor [5]; 630 nM at D(3) dopamine receptor; 160 nM at D(1A) dopamine receptor.

As for `COc1ccc(N2CCN(Cc3cnc4cc(C)ncn34)CC2)cc1`, the Activity (in assay [1]; at D(2) dopamine receptor [2]; in assay [3]) was 0% in each case.

The values above are taken from ChEMBL document CHEMBL1152959, “Design, synthesis and dopamine D4 receptor binding activities of new N-heteroaromatic 5/6-ring Mannich bases” (Bioorg Med Chem, 2009).
